Results reported in patent US11634451B2, “Method for the site-specific enzymatic labelling of nucleic acids in vitro by incorporation of unnatural nucleotides” (The Scripps Research Institute, priority 2013, dated 2023).
Marks after values point to notes of the source that are not given here.

Tests used:
OneTaq polymerase = experiment: PCR-based screen and amplification of DNA containing unnatural base pairs, OneTaq (Example 1); assay type: biochemical
Method: (§1) The triphosphates of the 6 group were prepared from the previously reported nucleosides (Kubelka, T., Slavetinska, L., Eigner, V. and Hocek, M. Synthesis of 2,6-disubstituted pyridin-3-yl C-2′-deoxyribonucleosides through chemoselective transformations of bromo-chloropyridine C-nucleosides. Org. Biomol. Chem., 11, 4702-4718) according to Ludwig, J. and Eckstein, F. Rapid and efficient synthesis of nucleoside 5′-0-(1-thiotriphosphates), 5′-triphosphates and 2′,3′-cyclophosphorothioates using 2-chloro-4H-1,3,2-benzodioxaphosphorin-4-one. J. Org. Chem., 54, 631-635. The purity of all other triphosphates was confirmed by MALDI-TOF and UV-VIS. Taq and OneTaq DNA polymerases were purchased from New England Biolabs (Ipswich, Mass.). A mixture of dNTPs was purchased from Fermentas (Glen Burnie, Md.). SYBR Green I Nucleic Acid Gel Stain (10,000×) was purchased from Life Technologies (Carlsbad, Calif.). The synthesis of the DNA templates, D8 (Malyshev, D. A., Dhami, K., Quach, H. T., Lavergne, T., Ordoukhanian, P., Torkamani, A. and Romesberg, F. E. Efficient and sequence-independent replication of DNA containing a third base pair establishes a functional six-letter genetic alphabet. Proc. Natl. Acad. Sci. USA, 109, 12005-12010), used for screening rounds 1-5, and D6 (Malyshev, D. A., Seo, Y. J., Ordoukhanian, P. and Romesberg, F. E. PCR with an expanded genetic alphabet. J. Am. Chem. Soc., 131, 14620-14621), used for all other amplifications, was described previously. Sanger sequencing was carried out as described previously (Malyshev, D. A., Dhami, K., Quach, H. T., Lavergne, T., Ordoukhanian, P., Torkamani, A. and Romesberg, F. E. Efficient and sequence-independent replication of DNA containing a third base pair establishes a functional six-letter genetic alphabet. Proc. Natl. Acad. Sci. USA, 109, 12005-12010). Raw Sanger sequencing traces were used to determine the percent retention of the unnatural base pairs, which was converted to fidelity per doubling, as described (Malyshev, D. A., Dhami, K., Quach, H. T., Lavergne, T., Ordoukhanian, P., Torkamani, A. and Romesberg, F. E. Efficient and sequence-independent replication of DNA containing a third base pair establishes a functional six-letter genetic alphabet. Proc. Natl. Acad. Sci. USA, 109, 12005-12010; Malyshev, D. A., Seo, Y. J., Ordoukhanian, P. and Romesberg, F. E. PCR with an expanded genetic alphabet. J. Am. Chem. Soc., 131, 14620-14621).
(§2) All PCR amplifications were performed in a CFX Connect Real-Time PCR Detection System (Bio-Rad), in a total volume of 25 μL using the following conditions: 1× OneTaq reaction buffer, 0.5× Sybr Green I, MgSO4 adjusted to 4.0 mM, 0.2 mM of each dNTP, 50 μM of each unnatural triphosphate, […] of Primer1 and Primer2 (See Table 2), and 0.02 U/μl of the DNA polymerase. Other conditions specific for each round of screening are described in Table 3. Amplified products were purified using DNA Clean and Concentrator-5 spin columns from Zymo Research (Irvine, Calif.). After purification, the PCR products were sequenced on a 3730 DNA Analyzer (Applied Biosystems) to determine the retention of the unnatural base pair as described below. Fidelity was characterized from unnatural base pair (UBP) retention as determined by sequencing with Primer1 on a 3730 DNA Analyzer (Applied Biosystems).
(§3) Specific PCR assay conditions. PCR with the most promising UBPs was carried out with the conditions as described in Table 3. PCR products were further purified on […] gels, followed by single band excision and subsequent clean up using the Zymo Research Zymoclean Gel DNA Recovery Kit. After elution with 20 μl of water, the DNA concentration was measured using fluorescent dye binding (Quant-iT dsDNA HS Assay kit, Life Technologies), and purified amplicons were sequenced in triplicate with both Primer1 and Primer2 to determine UBP retention and thus amplification fidelity. […]

Taq polymerase = target: T1, Taq polymerase (Thermus aquaticus, UniProt P19821); experiment: PCR-based screen and amplification of DNA containing unnatural base pairs, Taq (Example 1); assay type: biochemical
T1 construct: purchased New England Biolabs (Ipswich, Mass.)
T1 sequence (P19821 whole entry): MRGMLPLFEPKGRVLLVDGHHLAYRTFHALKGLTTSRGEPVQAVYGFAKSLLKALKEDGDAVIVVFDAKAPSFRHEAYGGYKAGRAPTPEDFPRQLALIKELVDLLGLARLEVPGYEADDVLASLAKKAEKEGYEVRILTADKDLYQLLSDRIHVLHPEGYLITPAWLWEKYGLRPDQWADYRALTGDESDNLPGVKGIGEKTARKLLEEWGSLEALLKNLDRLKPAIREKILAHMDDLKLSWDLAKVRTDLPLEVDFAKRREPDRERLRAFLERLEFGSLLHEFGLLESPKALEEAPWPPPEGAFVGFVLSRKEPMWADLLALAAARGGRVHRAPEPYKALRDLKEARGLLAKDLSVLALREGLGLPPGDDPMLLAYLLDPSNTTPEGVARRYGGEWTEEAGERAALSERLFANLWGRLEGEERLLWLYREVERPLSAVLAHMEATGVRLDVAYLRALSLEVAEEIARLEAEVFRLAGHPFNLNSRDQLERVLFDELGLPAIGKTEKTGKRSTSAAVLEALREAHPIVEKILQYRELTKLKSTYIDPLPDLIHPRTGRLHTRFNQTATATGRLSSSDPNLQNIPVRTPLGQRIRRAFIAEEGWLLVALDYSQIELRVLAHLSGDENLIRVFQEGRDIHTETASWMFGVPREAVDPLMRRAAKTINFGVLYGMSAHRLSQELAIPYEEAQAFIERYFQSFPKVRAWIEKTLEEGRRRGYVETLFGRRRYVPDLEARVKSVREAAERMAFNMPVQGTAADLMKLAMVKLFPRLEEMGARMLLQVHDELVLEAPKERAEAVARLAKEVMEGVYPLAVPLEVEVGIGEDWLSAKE
Method: as §1, §2, §3

[1] = OneTaq, 1 min Extension, 52 cycles, D6 template
[2] = Taq, 10 s Extension, 52 cycles, D6 template
[3] = ^a 100 pg D8 template, 16 cycles, Taq polymerase, 68° C. for 60 s
[4] = ^b 10 pg D6 template, 24 cycles, OneTaq polymerase, 68° C. for 10 s

Structure (SMILES)	Amplification, ×10^12 (OneTaq polymerase; [1])	Fidelity per Doubling, % (OneTaq polymerase; [1]) [%]	Retention, % (OneTaq polymerase; [1]) [%]	Amplification, ×10^12 (Taq polymerase; [2])	Fidelity per Doubling, % (Taq polymerase; [2])	Retention, % (Taq polymerase; [2])	Retention, % (Taq polymerase; [3])	Retention, % (OneTaq polymerase; [4])
COc1cc2ccccc2cc1[C@H]1C[C@H](O)[C@@H](COP(=O)(O)OP(=O)(O)OP(=O)(O)O)O1.Cc1ccc2c(=S)n([C@H]3C[C@H](O)[C@@H](COP(=O)(O)OP(=O)(O)OP(=O)(O)O)O3)ccc2c1 [5SICS-NaM, reference compound]	8.1 ×10^12	99.00 ± 0.02	77.1 ± 0.7	9.3 ×10^12	<85^b %	<50^b %		
COc1cc(C#N)ccc1[C@H]1C[C@H](O)[C@@H](COP(=O)(O)OP(=O)(O)OP(=O)(O)O)O1.O=P(O)(O)OP(=O)(O)OP(=O)(O)OC[C@H]1O[C@@H](n2cc(F)c3ccsc3c2=S)C[C@@H]1O [FTPT3-CNMO]							94^a %	
C#Cc1cc(OC)c([C@H]2C[C@H](O)[C@@H](COP(=O)(O)OP(=O)(O)OP(=O)(O)O)O2)cc1F.O=P(O)(O)OP(=O)(O)OP(=O)(O)OC[C@H]1O[C@@H](n2cc(F)c3ccsc3c2=S)C[C@@H]1O [FTPT3-FEMO]	6.3 ×10^12	99.24 ± 0.04	72.4 ± 1.4	5.7 ×10^12	99.51 ± 0.11%	81 ± 4%		
COc1cc(I)c(F)cc1[C@H]1C[C@H](O)[C@@H](COP(=O)(O)OP(=O)(O)OP(=O)(O)O)O1.O=P(O)(O)OP(=O)(O)OP(=O)(O)OC[C@H]1O[C@@H](n2cc(F)c3ccsc3c2=S)C[C@@H]1O [FTPT3-FIMO]	8.2 ×10^12	99.65 ± 0.08	86 ± 3	4.8 ×10^12	99.60 ± 0.09%	84 ± 3%		
COc1cc(I)ccc1[C@H]1C[C@H](O)[C@@H](COP(=O)(O)OP(=O)(O)OP(=O)(O)O)O1.O=P(O)(O)OP(=O)(O)OP(=O)(O)OC[C@H]1O[C@@H](n2cc(F)c3ccsc3c2=S)C[C@@H]1O [FTPT3-IMO]	7.1 ×10^12	99.38 ± 0.05	76.8 ± 1.6	5.6 ×10^12	99.54 ± 0.13%	82 ± 5%		
COc1cc2ccccc2cc1[C@H]1C[C@H](O)[C@@H](COP(=O)(O)OP(=O)(O)OP(=O)(O)O)O1.O=P(O)(O)OP(=O)(O)OP(=O)(O)OC[C@H]1O[C@@H](n2cc(F)c3ccsc3c2=S)C[C@@H]1O [FTPT3-NaM]	7.0 ×10^12	99.76 ± 0.06	90 ± 2	3.7 ×10^12	99.76 ± 0.15%	91 ± 6%		
COc1cc(N=[N+]=[N-])ccc1[C@H]1C[C@H](O)[C@@H](COP(=O)(O)OP(=O)(O)OP(=O)(O)O)O1.O=P(O)(O)OP(=O)(O)OP(=O)(O)OC[C@H]1O[C@@H](n2cc(F)c3ccsc3c2=S)C[C@@H]1O [FTPT3-ZMO]							88^a %	
C#Cc1cc(OC)c([C@H]2C[C@H](O)[C@@H](COP(=O)(O)OP(=O)(O)OP(=O)(O)O)O2)cc1F.O=P(O)(O)OP(=O)(O)OP(=O)(O)OC[C@H]1O[C@@H](n2ccc3ccccc3c2=S)C[C@@H]1O [SICS-FEMO]								92^b %
COc1cc2ccccc2cc1[C@H]1C[C@H](O)[C@@H](COP(=O)(O)OP(=O)(O)OP(=O)(O)O)O1.O=P(O)(O)OP(=O)(O)OP(=O)(O)OC[C@H]1O[C@@H](n2ccc3ccccc3c2=S)C[C@@H]1O [SICS-NaM]							99^a %	
C#Cc1cc(OC)c([C@H]2C[C@H](O)[C@@H](COP(=O)(O)OP(=O)(O)OP(=O)(O)O)O2)cc1F.O=P(O)(O)OP(=O)(O)OP(=O)(O)OC[C@H]1O[C@@H](n2ccc3ncccc3c2=S)C[C@@H]1O [SNICS-FEMO]								95^b %
